From patent US8173133B2, “Acyl pseudodipeptides which carry a functionalized auxiliary arm” (OM Pharma, priority 1999, dated 2012)
pIC50: −log10 of the molar value. Several values for one entry are separate records, joined by “and”; a condition that tells them apart may be missing. Identical values can stand only once.

Tests used:
Leishmania LmCPb antigen [1] = assay: Leishmania LmCPb immunization: lymph node cell proliferation (3H-TdR); format: in vivo, CBA mice; set-up: scale not given here
Experimental: (§1) CBA mice were administered through the tail a single subcutaneous injection (100 μl) of Leishmania parasite LmCPb antigen (3 μg per mouse)±adjuvant. […] Eleven days after injection, inguinal and periaortic lymph node cells (2 groups of 3 mice each) were cultured in triplicate in presence of purified LmCPb antigen or whole extract of the parasite (amastigote). At day 4, a supernatant sample is withdrawn and stored at −20° C. for IL-4 and γ IFN assay. Finally, tritiated thymidine (^3H-TdR) is added to the cultures to measure the proliferation reaction.
(§2) Cytokine assay is carried out by a sandwich ELISA assay (OptEIA®) kits for γ IFN and IL-4, BD, PharMingen, Basel, Switzerland) and the proliferation response is determined by measuring thymidine take-up (^3H-TdR). ^3H-TdR take-up given in cpm as the arithmetic mean value±standard deviation ([…] of 3 mice each) and IL-4 concentration given in pg/ml are individually reported for each pool of 3 mice as the arithmetic mean of two measurements (cytokine assay).
(§3) An LmCPb stock solution is prepared at a concentration of 150 μg/ml in PBS
(§4) Adjuvants: The stock solution of OM-294-MP-AC is prepared at a concentration of 0.9 mg/ml in water for injection, with addition of 0.1% triethanolamine.
(§5) Antigen-adjuvant mixture: Adjuvant preparation (4 volumes), which had been adjusted to an adequate final concentration in sterile PBS, is mixed just prior to injection with the antigen stock solution (1 volume).

K562 cells = assay: activation of NK cell cytotoxicity against K562 target cells (LDH release); format: cell-based, human
Experimental: PBMC were recovered from buffy coats according to the procedure previously described in example 4.6. […] Cells were incubated under such conditions for 24 hours. K562 cells (human leukemia cell line, ATCC #CCL 243, 20110-2209 Manassas (Va.), U.S.A.) were maintained in culture using RPMI medium containing 10% FCS and subjected to 2 passages per week.
In order to make cytotoxicity measurement, PBMC and K562 cells were washed twice in HBSS and resuspended in Phenol Red-free RPMI medium containing 5% FCS. PBMC were divided into a round bottom 96-well plate so as to achieve a PBMC/target ratio of 20/1, 10/1 and 5/1 in 50 μl volume. 5000 K562 cells (target) were added in each well using 50 μl of Phenol Red-free RPMI. Final volume was 100 μl. The plate was centrifuged to promote contact then incubated at 37° C. for 4 hours.
Cytotoxicity was assayed using a non radioactive CytoTox 96 kit based on measuring LDH release during cell lysis (kit #G1780, batch #124100, Promega, Madison, Wis.) according to the supplier's instructions.
The percentage of cytotoxicity was calculated according to the following equation: […]

[2] = system: Limulus Amoebocyte Lysate
dendritic cells = assay: in vivo maturation and migration of dendritic cells into the spleen; set-up: species or system mice; settings: i.v. 20 μg and s.c. 5 μg per mouse
Text: Immunostaining of histological slides taken from spleen of animals treated with products of the invention reveal colocalization of mature dendritic cells and T cells in the […], as is seen with LPS treatment, whereas in untreated animals, no migration and maturation are observed.

Spleenic cells = assay: murine spleenic cell proliferation (3H-TdR take-up); format: cell-based, CBA mice; settings: for increase of thymidine take-up: one day of culture
Experimental: Cell proliferation response is assessed by measuring triturated thymidine (^3H-TdR) take-up after 1 or 2 days of culture. Values reported in the table stand for the arithmetic mean±standard deviation of 4 cultures.

MxA protein = MxA protein induction in dendritic cells (Western blot); format: cell-based, human; settings: 1 μg/ml; after 24 hr and 48 hours; FIGS. 77, 78
Experimental: The ability of products of the invention to induce production of antiviral MxA protein by predendritic cells has been assessed. MxA production by cells was measured after an SDS-PAGE electrophoretic separation by a Western Blot assay
Extraction and analysis of protein was conducted as follows: cells were harvested, then washed 3 times with PBS (phosphate buffered saline) and lyzed with a 100 Mm Tris-HCl buffer, 150 mM NaCl, 5 mM EDTA, 1% Triton-100 containing 1 mM PMSF (phenylmethylsulphonyl fluoride) and 1 μ/ml of pepstatin as protease inhibitors. Lysis was carried out at a density of 10^6 cells for 100 μl of (5×) buffer containing 60 mM Tris-HCl (pH 6.8), 10% glycerol, 2% SDS, 14.4 mM 2-mercaptoethanol and 0.1% bromophenol). Samples were heated up to 95° C. for 5 min. in sealed Eppendorf tubes. Electrophoresis was performed on a 10 cm×10 cm 12% acrylamide minigel by running a sample having the same number of cells. Migration was effected with the following buffer: 25 mM Tris, 192 mM glycine, 0.1% SDS, pH 8.3. […]
Non specific bonding sites on the membrane were blocked with 5% skimmed milk in TBS (10 mM Tris-HCl, 150 Mm NaCl, pH 7.4) and allowing to stand for 1 hour at room temperature. […] In this system, HRP catalyzes a luminol-mediated chemiluminescent reaction which can be detected on a photographic film. […]

Leishmania LmCPb antigen [3] = assay: Leishmania LmCPb immunization: IL-4 and γ IFN in lymph node cell supernatant (ELISA); format: in vivo, CBA mice; settings: pools a and b
Experimental: as §1, §2, §3, §4, §5

HIV-2 ROD = assay: anti-HIV activity in MT-4 cells (MTT), HIV-2 ROD; format: cell-based
Experimental: (§6) T MT-4 lymphocyte cell line which had been transformed into a continuous cell line by an HTLV infection, a virus associated with one form of leukemia, was used to test the antiviral activity (anti-HIV) of AZT- and d4T-conjugated compounds according to the invention, respectively. A characteristic feature of such cells is lack of survival following an HIV infection. The test is based on protection provided by the product (like AZT) against this viral destructive effect. Products were tested in serially diluted solutions in a 96-well plate. In the upper portion of the microplate, products were tested by incubation at various concentrations with cells and virus (in triplicate), so as to determine the concentration of product which affords cell protection against the viral destructive effect. IC50 of the product is taken as the concentration where a 50% loss of viable cell count is recorded. Viable cell count was done with MTT, a yellow tetrazolium compound which undergoes enzymatic reduction (at the mitochondrial level in viable cells) into a purple colored formazan compound. Wells containing viable cells are purple in colour, whereas dead cells give a persistent yellow color. Measurement of optical density (O.D.) allows this effect to be quantified.

HIV-1 IIIB = assay: anti-HIV activity in MT-4 cells (MTT), HIV-1 IIIB; format: cell-based
Experimental: as §6

MT-4 cells = assay: cytotoxicity on virus-free MT-4 cells (MTT); format: cell-based
Experimental: Cytotoxicity of a given product is assessed in the same manner in the lower portion of the plate where the test is conducted by incubating serially diluted products over virus-free cells, to thereby determine the toxic effect of products on cells. The result is given as CC50, i.e. the concentration at which 50% of cells are dead due to product toxicity. Selectivity (selectivity index, SI) of a given product is defined as a CC50/IC50 ratio. This parameter is of great importance since the selectivity index of a fairly efficient product is high.

Work on `CCCCCCCCCCCC(=O)O[C@H](CCCCCCCCCCC)CC(=O)NC(CCOP(=O)(O)O)C(=O)NCCCC(COC(=O)CCCCCN)NC(=O)C[C@H](O)CCCCCCCCCCC` (stereo partly drawn) [OM-197-MP-AC, 3-[(R)-3-dodecanoyloxytetra-decanoylamino]-4-oxo-5-aza-9-[(R)-3-hydroxytetradecanoylamino]-1,10-diol-dihydrogenphosphate 10-(6-aminohexanoate)] yielded a triturated thymidine take-up (Leishmania LmCPb antigen [1]; adjuvant 50 μg s.c. with LmCPb, in vitro: No challenge) of 0.7 ± 0.1 CPM, a triturated thymidine take-up (Leishmania LmCPb antigen [1]; in vitro challenge Amastigotes 2 ×10^−6/ml) of 1.6 ± 0.3 CPM and a triturated thymidine take-up (Leishmania LmCPb antigen [1]; in vitro challenge Amastigotes 6 ×10^−6/ml) of 5.3 ± 1.5 CPM. For the same molecule, the triturated thymidine take-up (Leishmania LmCPb antigen [1]; in vitro challenge Amastigotes 17 ×10^−6/ml) was 12.6 ± 2.5 CPM, the triturated thymidine take-up (Leishmania LmCPb antigen [1]; in vitro challenge Amastigotes 50 ×10^−6/ml) was 32.6 ± 5.2 CPM and the triturated thymidine take-up (Leishmania LmCPb antigen [1]; in vitro challenge Con A 5 μg/ml) was 208.5 ± 56.0 CPM. The triturated thymidine take-up (Leishmania LmCPb antigen [1]; in vitro challenge LmCPb 0.6 μg/ml) was 1.3 ± 0.5 CPM, the triturated thymidine take-up (Leishmania LmCPb antigen [1]; in vitro challenge LmCPb 5 μg/ml) was 3.0 ± 1.1 CPM and the triturated thymidine take-up (Leishmania LmCPb antigen [1]; in vitro challenge LmCPb 15 μg/ml) was 7.0 ± 0.7 CPM. For the same molecule, the “NK activity level” value (K562 cells; 1 μg/ml) was “comparable or slightly inferior to that induced by LPS”, the “% cytotoxicity” value (K562 cells; Ratio PBMC:K562 5.1) was 7.4% and the “Optical density at 490 nm, K562 + PBMC” value (K562 cells; Ratio PBMC:K562 5.1) was 1.5. The “Optical density at 490 nm, PBMC alone” value (K562 cells; Ratio PBMC:K562 5.1) was 0.027, the “% cytotoxicity” value (K562 cells; Ratio PBMC:K562 10.1) was 13.7% and the “Optical density at 490 nm, K562 + PBMC” value (K562 cells; Ratio PBMC:K562 10.1) was 1.66. For the same molecule, the “Optical density at 490 nm, PBMC alone” value (K562 cells; Ratio PBMC:K562 10.1) was 0.084, the “% cytotoxicity” value (K562 cells; Ratio PBMC:K562 20.1) was 22% and the “Optical density at 490 nm, K562 + PBMC” value (K562 cells; Ratio PBMC:K562 20.1) was 1.8. The “Optical density at 490 nm, PBMC alone” value (K562 cells; Ratio PBMC:K562 20.1, stimulus 24 hours) was 0.084, the “LAL EU/mg of product” value [2] was 6 EU/mg of product and the “LAL ng of LPS equivalent per mg of product” value [2] was 0.48 ng of LPS equivalent per mg of product. The “maturation and migration of dendritic cells in spleen” value (dendritic cells) was “induce maturation and migration of dendritic cells into the spleen”, the 3H-TdR take-up (Spleenic cells; 0.1 μg/ml, incubation 1 day) was 8.7 ± 0.7 CPM × 10^−3 and the 3H-TdR take-up (Spleenic cells; 0.1 μg/ml, incubation 2 days) was 21.1 ± 1.3 CPM × 10^−3. For the same molecule, the 3H-TdR take-up (Spleenic cells; 1 μg/ml, incubation 1 day) was 34.3 ± 2.6 CPM × 10^−3, the 3H-TdR take-up (Spleenic cells; 1 μg/ml, incubation 2 days) was 55.6 ± 5.2 CPM × 10^−3 and the “increase of thymidine take-up” value (Spleenic cells; 1 μg/ml) was 5 fold. The 3H-TdR take-up (Spleenic cells; 10 μg/ml, incubation 1 day) was 79.0 ± 12 CPM × 10^−3, the 3H-TdR take-up (Spleenic cells; 10 μg/ml, incubation 2 days) was 92.7 ± 8.8 CPM × 10^−3 and the “increase of thymidine take-up” value (Spleenic cells; 10 μg/ml) was 12 fold. The “production of MxA protein” value (MxA protein) was “significant rise”, the IL-4 production (Leishmania LmCPb antigen [3]; No challenge) was under 8 pg/mL and the IL-4 production (Leishmania LmCPb antigen [3]; in vitro challenge Amastigotes, first pair of lines) was 55 pg/mL and 70 pg/mL. For the same molecule, the IL-4 production (Leishmania LmCPb antigen [3]; in vitro challenge Amastigotes, second pair of lines) was 29 pg/mL and 28 pg/mL, the IL-4 production (Leishmania LmCPb antigen [3]; in vitro challenge Con A) was 103 pg/mL and 102 pg/mL and the IL-4 production (Leishmania LmCPb antigen [3]; in vitro challenge LmCPb) was 12 pg/mL and 13 pg/mL.
Molecule `Cc1cn([C@H]2C[C@H](N=[N+]=[N-])[C@@H](CO)O2)c(=O)[nH]c1=O` [AZT, reference compound] has a pIC50 (HIV-2 ROD) of 8.74, a pIC50 (HIV-1 IIIB) of 8.54 and a CC50 (MT-4 cells) of 187000 nM.
`Cc1cn([C@H]2C=C[C@@H](CO)O2)c(=O)[nH]c1=O` [Example D4T, reference compound] gave a pIC50 (HIV-2 ROD) of 6.66, a pIC50 (HIV-1 IIIB) of 6.97 and a CC50 (MT-4 cells) of 321000 nM.
